The data set is described as follows: Moisture-sorption isotherm (VTI SGA-100 Symmetric Vapor Analyzer). The settings on record: range from about 25% RH to about 75% RH at 25° C.; FIG. 8. The format is physicochemical. The protocol: 10. Moisture-sorption isotherms were collected in a VTI SGA-100 Symmetric Vapor Analyzer using approximately 10 mg of sample. The sample was dried at 60° C. until the loss rate of 0.0005 wt %/min was obtained for 10 minutes. The sample was tested at 25° C. and 3 or 4, 5, 15, 25, 35, 45, 50, 65, 75, 85, and 95% RH. Equilibration at each RH was reached when the rate of 0.0003 wt %/min for 35 minutes was achieved or a maximum of 600 minutes.

With `O=C(C(=O)N1CCN(C(=O)c2ccccc2)CC1)c1c[nH]c2c(-n3ccnn3)ncc(F)c12`, the “weight gain / weight water uptake (moisture-sorption isotherm)” value is “about 0.1%”.
